Measured values reported in ChEMBL document CHEMBL5352446, “Synthesis and biological evaluation of a novel c-Myc inhibitor against colorectal cancer via blocking c-Myc/Max heterodimerization and disturbing its DNA binding” (Eur J Med Chem, 2022).
Active and inactive are the calls of the source. No cut-off for these calls is given here.

How the values were obtained:
HT-29 [1] = test: Potency index, ratio of 5-Fu IC50 to test compound IC50 for antiproliferative activity against human HT-29 cells; type: functional
HCT-116 [2] = test: Inhibition of colony formation in human HCT-116 cells measured after 14 days by crystal violet staining based assay; type: functional, cell-based; conditions: dose 0.25-2 µM, time 14.0 day
HT-29 [3] = test: Inhibition of cell migration in human HT-29 cells incubated for 48 hrs by wound healing analysis; type: functional, cell-based
HT-29 [4] = test: Downregulation of c-Myc expression in human […] cells incubated for 24 hrs by Western blot analysis; type: functional, cell-based; conditions: dose 2.5-10 µM
HCT-116 [5] = test: Downregulation of c-Myc expression in human HCT-116 cells incubated for 24 hrs by Western blot analysis; type: functional, cell-based; conditions: dose 2.5-10 µM
HT-29 [6] = test: Downregulation of c-Myc expression in human HT-29 cells at 10 uM incubated for 24 hrs by Western blot analysis; type: functional, cell-based
HT-29 [7] = test: Induction of apoptosis in human HT-29 cells assessed as downregulation of Bcl-2 expression incubated for 24 hrs by Western blot analysis; type: functional, cell-based; conditions: dose 2.5-10 µM
HT-29 [8] = test: Induction of apoptosis in human HT-29 cells assessed as upregulation of BAD expression incubated for 24 hrs by Western blot analysis; type: functional, cell-based; conditions: dose 2.5-10 µM
HT-29 [9] = test: Induction of cell cycle arrest in human HT-29 cells assessed as accumulation of cells at G1 phase at 0.625 uM incubated for 24 hrs by propidium iodide staining based flow cytometry analysis (reference value: 65.37 %); type: functional
HT-29 [10] = test: Induction of cell cycle arrest in human HT-29 cells assessed as accumulation of cells at S phase at 0.625 uM incubated for 24 hrs by propidium iodide staining based flow cytometry analysis (reference value: 12.01 %); type: functional
HT-29 [11] = test: Induction of cell cycle arrest in human HT-29 cells assessed as accumulation of cells at G1 phase at 1.25 uM incubated for 24 hrs by propidium iodide staining based flow cytometry analysis (reference value: 65.37 %); type: functional
HT-29 [12] = test: Induction of cell cycle arrest in human HT-29 cells assessed as accumulation of cells at G2 phase at 1.25 uM incubated for 24 hrs by propidium iodide staining based flow cytometry analysis (reference value: 16.33 %); type: functional
HT-29 [13] = test: Induction of cell cycle arrest in human HT-29 cells assessed as accumulation of cells at G1 phase at 2.5 uM incubated for 24 hrs by propidium iodide staining based flow cytometry analysis (reference value: 65.37 %); type: functional
HT-29 [14] = test: Induction of cell cycle arrest in human HT-29 cells assessed as accumulation of cells at S phase at 2.5 uM incubated for 24 hrs by propidium iodide staining based flow cytometry analysis (reference value: 12.01 %); type: functional
HT-29 [15] = test: Induction of cell cycle arrest in human HT-29 cells assessed as accumulation of cells at G2 phase at 2.5 uM incubated for 24 hrs by propidium iodide staining based flow cytometry analysis (reference value: 16.33 %); type: functional
HT-29 [16] = test: Induction of cell cycle arrest in human HT-29 cells assessed as accumulation of cells at G1 phase at 5 uM incubated for 24 hrs by propidium iodide staining based flow cytometry analysis (reference value: 65.37 %); type: functional
HT-29 [17] = test: Induction of apoptosis in human HT-29 cells assessed as late apoptotic cells at 0.625 uM incubated for 24 hrs by FITC Annexin-V and PI staining based flow cytometry analysis (reference value: 0.78%); type: functional
HT-29 [18] = test: Induction of apoptosis in human HT-29 cells assessed as necrotic cells at 0.625 uM incubated for 24 hrs by FITC Annexin-V and PI staining based flow cytometry analysis (reference value: 0.13%); type: functional
HT-29 [19] = test: Induction of apoptosis in human HT-29 cells assessed as viable cells at 1.25 uM incubated for 24 hrs by FITC Annexin-V and PI staining based flow cytometry analysis (reference value: 96.94%); type: functional; conditions: read-out: Activity
HT-29 [20] = test: Induction of apoptosis in human HT-29 cells assessed as early apoptotic cells at 2.5 uM incubated for 24 hrs by FITC Annexin-V and PI staining based flow cytometry analysis (reference value: 2.15%); type: functional
HT-29 [21] = test: Induction of apoptosis in human HT-29 cells assessed as necrotic cells at 2.5 uM incubated for 24 hrs by FITC Annexin-V and PI staining based flow cytometry analysis (reference value: 0.13%); type: functional
HT-29 [22] = test: Induction of apoptosis in human HT-29 cells assessed as early apoptotic cells at 5 uM incubated for 24 hrs by FITC Annexin-V and PI staining based flow cytometry analysis (reference value: 2.15%); type: functional
HT-29 [23] = test: Induction of apoptosis in human HT-29 cells assessed as late apoptotic cells at 5 uM incubated for 24 hrs by FITC Annexin-V and PI staining based flow cytometry analysis (reference value: 0.78%); type: functional
HT-29 [24] = test: Induction of apoptosis in human HT-29 cells assessed as viable cells at 10 uM incubated for 24 hrs by FITC Annexin-V and PI staining based flow cytometry analysis (reference value: 96.94%); type: functional; conditions: read-out: Activity
HT-29 [25] = test: Induction of apoptosis in human HT-29 cells assessed as early apoptotic cells at 10 uM incubated for 24 hrs by FITC Annexin-V and PI staining based flow cytometry analysis (reference value: 2.15%); type: functional
HT-29 [26] = test: Induction of apoptosis in human HT-29 cells assessed as late apoptotic cells at 10 uM incubated for 24 hrs by FITC Annexin-V and PI staining based flow cytometry analysis (reference value: 0.78%); type: functional
[27] = Toxicity in BALB/c mouse xenografted with human HT-29 cells assessed as liver damage at 40 to 80 mg/kg, ip measured after 21 days by H and E staining based assay; type: organism-based; conditions: in vivo, 504 h, dose 40-80 mg/kg, time 21 day
[28] = Toxicity in BALB/c mouse xenografted with human HT-29 cells assessed as lung damage at 40 to 80 mg/kg, ip measured after 21 days by H and E staining based assay; type: organism-based; conditions: in vivo, 504 h, dose 40-80 mg/kg, time 21 day
HT-29 [29] = test: cells; conditions: Homo sapiens, HT-29, 72 h
Description: Antiproliferative activity against human HT-29 cells incubated for 72 hrs by MTT assay

- IC50 (HT-29 [29]): 290 nM
SMILES: COc1cc(Oc2ccc(Nc3ccc(CCCO)cc3)cc2)cc(OC)c1CNCCc1ccc(C(F)(F)F)cc1
- Ratio IC50 (HT-29 [1]): 32
- inhibition (HCT-116 [2]): Dose-Dependent Effect
- inhibition (HT-29 [3]): Active
- Activity (HT-29 [4]): Dose-Dependent Effect
- Activity (HCT-116 [5]): Dose-Dependent Effect
- Activity (HT-29 [6]): Active
- Activity (HT-29 [7]): Dose-Dependent Effect
- Activity (HT-29 [8]): Dose-Dependent Effect
- Activity (HT-29 [9]): 71.78%
- Activity (HT-29 [10]): 14.41%
- Activity (HT-29 [11]): 74.95%
- Activity (HT-29 [12]): 11.24%
- Activity (HT-29 [13]): 75.57%
- Activity (HT-29 [14]): 14.32%
- Activity (HT-29 [15]): 8.23%
- Activity (HT-29 [16]): 76.86%
- Activity (HT-29 [17]): 3.14%
- Activity (HT-29 [18]): 1.44%
- viability at 1.25 µM (HT-29 [19]): 81%
- Activity (HT-29 [20]): 19.39%
- Activity (HT-29 [21]): 3.95%
- Activity (HT-29 [22]): 22.05%
- Activity (HT-29 [23]): 7.67%
- viability at 10 µM (HT-29 [24]): 55.6%
- Activity (HT-29 [25]): 29.06%
- Activity (HT-29 [26]): 13.52%
- Activity [27]: Non-Toxic
- Activity [28]: Non-Toxic
